What was measured:
[1] = system: gene-edited PB-TRE-N1ICD hPSC-EPCs; test: Fluorescent albumin accumulation assay in gene-edited PB-TRE-N1ICD hPSC-EPCs; format: cell-based, human; conditions: PBS-treated 10(+CR2) cells, 30 min pretreatment: 3 mM MβCD, 20 µM CPZ or 2 μM rottlerin
Protocol: Fixable, Alexa Fluor 647-conjugated bovine serum albumin (BSA) (Invitrogen) was used as a substrate to estimate total fluid-phase endocytosis. […] Similarly, D6 cultures of HUVECs treated with GFP or N1ICD LV were pre-treated with or without 3 mM MβCD for 30 min at 37° C. Cells were washed once with sterile DPBS and then incubated in hECSR (for hPSC-EPCs) supplemented with 5 μg/mL BSA or 1:1000 diluted DPBS, 1:100 diluted CD144-FITC or FITC isotype control antibody, and 4 μM Hoechst 33342 (Life Technologies) or EGM-2 media (for HUVECs) supplemented with 5 μg/mL BSA or 1:1000 diluted DPBS and 4 μM Hoechst 33342 at 4° C. or 37° C. for 2 h on a rotating platform at 30 rpm, protected from light. Cells were then washed 3 times with 4° C. sterile DPBS to stop the assay and wash away any extracellular BSA. Internalization of fluorescent BSA was visualized using an Eclipse Ti2-E epifluorescence microscope (Nikon, Tokyo, Japan) with a 20× objective.
Flow cytometry was used to quantify accumulated BSA fluorescence within cells. […] FITC emission was detected with a 530/30 filter and AlexaFluor 647 emission was detected with a 670/14 filter. Data were analyzed with Flow Jo software.

hPSC-EPCs = conditions: CHIR supplemented in hPSC-EPCs culture medium; cited from earlier work
[2] = system: gene-edited PB-TRE-N1ICD hPSC-EPCs; test: RT-qPCR of BBB-related genes in gene-edited PB-TRE-N1ICD hPSC-EPCs + CHIR ± doxycycline; format: cell-based, human
Protocol: Gene-edited hPSC-derived EPCs (D5) with high post-MACS purity validated by flow cytometry were cultured on collagen IV-coated plates at approximately 4×10^4 cells/cm^2 in hECSR medium supplemented with various antibiotics, with media changes every other day. […] […] On D15, cells were collected for RT-qPCR quantification of differential gene expression between doxycycline and DPBS-treated gene-edited hPSC-EPCs.
RNA extraction was performed using the Direct-zol RNA Miniprep Kit (Zymo Research). Cells were lysed with 300-600 μL TRIzol reagent (Invitrogen, Waltham, MA) depending on the estimated cell count per sample. Cell lysates were combined with an equal volume of 100% ethanol and transferred to Zymo-Spin IICR spin columns. Columns were incubated with Rnase-free DNase I (Qiagen) to eliminate residual gDNA. Columns were washed with RNA Wash Buffer and Direct-zol RNA Pre-Wash according to Zymo RNA Miniprep Kit protocols. RNA was eluted with RNase-free water and concentration was determined using a NanoDrop 2000 spectrophotometer (Thermo Scientific). 250-1000 ng of RNA was reverse transcribed for 1 h at 37° C. using the OmniScript RT Kit (Qiagen). 1 U/μL RNaseOUT (Life Technologies) was included in the reverse-transcription reactions. Reaction products were diluted to 10 ng/μL. 20 μL qPCR reactions were carried out with 10 ng cDNA and 500 nM each forward and reverse primers (Integrated DNA Technologies, Coralville, IA [Table 1]) using PowerUp SYBR Green Master Mix (Life Technologies) or 1×Taqman Gene Expression Assay probes (Thermo Scientific [Table 1]) using Taqman Fast Advanced Master Mix (Thermo Scientific). Reactions were run on an AriaMx Real-Time PCR System (Agilent Technologies, Santa Clara, CA) using the thermal cycling program corresponding to either IDT primers or Taqman probes. An annealing temperature of 60° C. was used for all reactions.

[3] = system: gene-edited PB-TRE-N1ICD 10(+CR2) hPSC-EPCs; test: FACS of CD144 (VE-cadherin) subpopulations in gene-edited 10(+CR2) hPSC-EPCs; format: cell-based, human; conditions: doxycycline-treated population, D15
Protocol: Gene-edited PB-TRE-N1ICD hPSC-EPCs were cultured in a 6-well plate with or without doxycycline as described above (n=3* replicates for doxycycline supplemented condition, n=4 replicates for PBS supplemented condition). On D15, cells were isolated with Accutase (incubated 15 mins at 37° C., 1 mL/well), triturated, and quenched through a 40 μm cell strainer into 4× the volume of DMEM (Life Technologies) supplemented with 10% FBS (R&D Systems). An additional well of gene-edited EPCs cultured with PBS was reserved as an isotype control. Unedited hPSCs maintained in E8 medium and unedited hPSC-EPCs cultured for 6 days in hECSR supplemented with 4 μM CHIR were used as an additional negative and positive control, respectively, for FACS. Cell count was quantified using a hemocytometer and cells were centrifuged at 200×g for 5 min. Cells were resuspended in MACS buffer at a concentration of 100 μL/10^6 cells. Cells suspensions were supplemented with CD144-APC or APC-conjugated isotype control antibodies (Table 2) at a 1:50 dilution for at 4° C. for 20 min, protected from light. Cells were washed with 2 mL MACS buffer and centrifuged at 200×g for 5 min. Pellets were resuspended in 400 μL each of MACS buffer supplemented with 1 μg/mL DAPI (Invitrogen) and incubated at 4° C., protected from light.
Cells were sorted using the BD FACSAria III Cell Sorter (BD Biosciences). Gates for high or low CD144-expressing cells were determined based on two negative controls (gene-edited PB-TRE-N1ICD hPSC-derived ECs stained with APC isotype control antibody or unedited hPSCs stained with CD144-APC antibody, both negative for CD144) and one positive control (unedited hPSC-EPCs cultured with CHIR, CD144 high). After establishing gates, live gene-edited PB-TRE-N1ICD hPSC-ECs treated with or without doxycycline were sorted into tubes containing 500 μL MACS buffer and stored at 4° C.

[4] = system: gene-edited PB-TRE-N1ICD 10(+CR2) hPSC-EPCs; test: Bulk RNA-sequencing of FACS-sorted gene-edited 10(+CR2) hPSC-EPC subpopulations; format: cell-based, human
Protocol: Ten PBS or doxycycline-treated gene-edited PB-TRE-N1ICD hPSC-derived endothelial cell subpopulations obtained via FACS were centrifuged at 200×g for 5 min. Pellets were resuspended TRIzol reagent (Invitrogen) for extraction of total RNA. RNA concentrations were quantified using the Qubit 4 Fluorometer (Invitrogen) and Qubit RNA High Sensitivity Assay Kit (Invitrogen). Purified RNA samples (≥200 ng) were sent to Novogene Corporation (Sacramento, CA) for library preparation and mRNA sequencing, with approximately 40-60 million paired end reads obtained per sample. FASTQ files were uploaded to the Galaxy^43 web platform and processed to generate a raw counts matrix using the publicly available bioinformatics server at usegalaxy.org. We ran FastQC to ensure high Phred quality scores and low percentages (<5%) adapter content (Galaxy). Illumina Universal Adapter sequences were trimmed from raw sequencing reads using Cutadapt (Galaxy). Data were aligned to the hg38 genome model using RNA STAR and raw reads per gene were determined using featureCounts. Differential expression analysis was performed in R using DESeq2^44. Heatmaps containing TPM values were generated using the pheatmap package in R. Comparison of the transcriptomic profile of […] overexpressing EPCs±Dox subpopulations to transcriptomes of established cell and tissue types was performed with […]^45.

[5] = system: gene-edited PB-TRE-N1ICD 10(+CR2) hPSC-EPCs; test: Transendothelial electrical resistance (TEER); format: cell-based, human; conditions: Dox-treated edited hPSC-EPCs at end of culture (D15), doxycycline D11-D15
[6] = system: heterogeneous gene-edited hPSC-EPCs; test: CD31 flow cytometry in heterogeneous gene-edited hPSC-EPCs, hygromycin/doxycycline timing; format: cell-based, human; conditions: 6 days of hygromycin reselection followed by 4 days of doxycycline treatment
Protocol: To determine CD31 expression in edited hPSC-EPCs treated with doxycycline vs. DPBS (FIG. 15A,B), hPSC-ECs were isolated at day 13, 15, or 17, dissociated with Accutase as previously stated, quenched in DMEM supplemented with 10% FBS through a cell strainer, centrifuged, and resuspended in MACS buffer (100 μL/10^6 cells) supplemented with CD31-APC or APC isotype control antibodies at a 1:50 dilution. Cells were incubated at 4° C. for 20 min, protected from light. Cells were washed with 2 mL MACS buffer and centrifuged at 200×g for 5 min. Pellets were resuspended in 500 μL each of 4% PFA in DPBS and incubated 15 min at room temperature, protected from light. Cells were centrifuged at 200×g for 5 min and pellets were resuspended in 400 μL MACS buffer. Samples were run on an Attune NxT V6 flow cytometer with excitation at 633 nm. APC emission was detected with a 670/14 filter. Data were analyzed with Flow Jo software.

[7] = clone 10(+CR2), 6d H+4d D, 1 μg/mL doxycycline vs PBS, D15
[8] = clone 10(+CR2), 6d P+4d D vs PBS control

## CC(=O)c1c(O)c(C)c(O)c(Cc2c(O)c3c(c(C(=O)/C=C/c4ccccc4)c2O)OC(C)(C)C=C3)c1O [rottlerin]
[1]
  fluorescent albumin accumulation after endocytosis inhibitor pretreatment: but not with rottlerin

## Cc1c[nH]c(-c2cnc(NCCNc3ccc(C#N)cn3)nc2-c2ccc(Cl)cc2Cl)n1 [CHIR, CHIR99021]
hPSC-EPCs
  increase in normalized SLC2A1 expression (TPM): ~750 fold

## C[C@H]1c2cccc(O)c2C(=O)C2=C(O)[C@]3(O)C(=O)C(C(N)=O)=C(O)[C@@H](N(C)C)[C@@H]3[C@@H](O)[C@@H]21 [doxycycline, doxycycline hyclate]
[2]; clone 3(+Y) hPSC-EPCs, highest doxycycline dose, D11-D15
  decrease in CDH5 expression: ~2 fold
[2]; clone 10(+CR2), 2d P+4d D+4P vs PBS control
  downregulation of TJP1: ~2 fold
[2]; clone 10(+CR2), 6d H+4d D and 6d P+4d D vs PBS control (6d H+4d P), D15
  upregulation in MFSD2A: 60- to 100 fold
[2]; [7]
  decrease in expression of CDH5: ~3 fold
  increase in MFSD2A expression: ~50 fold
  increase in SLC2A1 expression: > 20 fold
  increase in expression of ABCB1: ~2 fold
  increase in expression of ABCC1: ~2 fold
  increase in expression of ABCG2: ~2 fold
  upregulation in N1ICD expression: ~8 fold
[2]; clone 10(+CR2), 6d P+4d D and 2d P+4d D+4P vs PBS control
  increase in CDH2: ~2 fold
[2]; [8]
  increase in ABCC1: 7 fold
  increase in ABCG2: 4 fold
  increase in FN1: ~12 fold
  upregulation of CLDN5: ~2 fold
[2]; clone 10(+CR2), 6d P+4d D vs PBS control, significant
  reduction in CDH5: ~2 fold
[2]; clone 10(+CR2), other doxycycline-treated conditions vs PBS control, non-significant
  reduction in CDH5: ~1.7 fold
[3]
  cells with high CD144 expression: ~25%
  cells with low but not absent CD144 expression: ~65%
[3]; live cells
  CD144+ cells: ~90%
[4]; Dox CD144 hi vs PBS CD144 hi
  increase in NOTCH1 expression (TPM): ~2 fold
[4]; Dox CD144 lo vs PBS CD144 hi
  increase in NOTCH1 expression (TPM): ~7 fold
[5]
  average TEER: less than 10 Ω·cm^2
[6]
  percentage of CD31+ cells: ~90%
